These results are taken from patent publication US20220389359A1, “USE OF PERFLUORO-N-OCTANE FOR PIEZO-MEDIATED INTRACYTOPLASMIC SPERM INJECTION” (priority 2019, published 2022).

Entries after “also recorded” stand apart in the source; their conditions may differ.

For series [1], the system named is 2PN (two pronuclei) mouse embryos. The experiment in a line: Mouse embryo development after incubation in fluorinated compounds. The class given is cell-based. To be noted: for Mean T2 to T3 (mean time from 2-cell stage to 3-cell stage) / # embryos showing degeneration / Pace of embryo development compared to untreated control embryos / Mean T2 (mean time taken to reach the 2-cell stage): incubated 3 minutes in compound; for # embryos showing degeneration / Pace of embryo development compared to untreated control embryos: cultured 5 days; for Mean T2 (mean time taken to reach the 2-cell stage): embryos that reached 2-cell stage; for # 2-cell stage / # 3-cell stage / # expanded blastocyst / # hatching/hatched blastocyst: number of embryos; for # 2-cell stage / # 3-cell stage / # expanded blastocyst / # hatching/hatched blastocyst / # 2-cell stage (%) / # 3-cell stage (%) / # expanded blastocyst (%) / # hatching/hatched blastocyst (%): incubated 3 minutes, within 5-day incubation; for # 2-cell stage (%) / # 3-cell stage (%) / # expanded blastocyst (%) / # hatching/hatched blastocyst (%): proportion of 2PN embryos. The procedure:
The effects of incubation in different fluorinated compounds on embryo development were tested.
223 2PN (two pronuclei) mouse embryos were randomly divided into four groups: A) raw perfluoro-n-octane; B) a commercially available perfluorohydrocarbon mixture previously used as operating liquid for Piezo-ICSI; C) purified perfluoro-n-octane; and D) untreated control.
Embryos in groups A, B and C were incubated for 3 minutes in the respective compound then transferred to culture medium. Embryos in all groups were then cultured for 5 days in an incubator (37.5° C., relative 100% humidity, 5% CO2 in air).
The number of embryos in each group showing signs of degeneration was counted.
The number of embryos in each group reaching the 2-cell, 3-cell, expanded blastocyst and hatching/hatched blastocyst stages of development within the 5-day incubation was counted.
The mean time taken to reach the 2-cell stage (T2) by those embryos that did, and the mean time taken for those embryos to develop from the 2-cell stage to the 3-cell stage (T3) were measured.

Series [2] relates to oocytes. In words: Assisted reproduction using Piezo-ICSI with purified perfluoro-n-octane operating liquid compared to c-ICSI. The class given is in vivo, human. To be noted: Piezo-ICSI with purified perfluoro-n-octane as operating liquid. From the text:
The efficacy of assisted reproduction using c-ICSI was compared to using Piezo-ICSI was compared. Purified perfluoro-n-octane was used as operating liquid for Piezo-ICSI.
In particular, 69 patients having at least 6 mature oocytes were randomly divided into two groups. The first group underwent assisted reproduction in which sperm was introduced into oocytes using c-ICSI. The second group underwent assisted reproduction in which sperm was introduced into oocytes using Piezo-ICSI.
c-ICSI was performed using Eppendorf 2K control with ICSI micropipettes (TPC, Cooper Surgical). Piezo-ICSI was performed using PMM and Piezo micropipettes (Primetech). Purified perfluoro-n-octane was used as operating liquid in Piezo-ICSI.

For series [3] the following is noted: 25° C.; cited from earlier work.

In the case of `FC(F)(F)C(F)(F)C(F)(F)C(F)(F)C(F)(F)C(F)(F)C(F)(F)C(F)(F)F` [purified perfluoro-n-octane, perfluoro-n-octane], in series [1], the “Mean T2 to T3 (mean time from 2-cell stage to 3-cell stage)” value worked out at 1293 min, the “# embryos showing degeneration” value was found to be 0, the “Pace of embryo development compared to untreated control embryos” value is on record as “developed at a pace comparable to untreated control embryos; also recorded: does not negatively affect embryo development” and the “Mean T2 (mean time taken to reach the 2-cell stage)” value is 1304 min. Besides, in series [1], the “# 2-cell stage” value was 51, the “# 3-cell stage” value is 48, the “# expanded blastocyst” value was 45 and the “# hatching/hatched blastocyst” value is listed as 33. In series [1], the “# 2-cell stage (%)” value is “(93%)”, the “# 3-cell stage (%)” value was “(87%)”, the “# expanded blastocyst (%)” value is listed as 82% and the “# hatching/hatched blastocyst (%)” value was 60%. In addition, in series [2], the “Additional embryos for vitrification on average compared to c-ICSI” value was found to be 1. Moreover, the “Average number of embryos for vitrification” value in series [2] (c-ICSI 2.7) was 3.8. Further, the Oocyte degeneration rate in series [2] (c-ICSI 10.2%) is recorded as 3.8%. The same molecule returned a Utilisation rate in series [2] (c-ICSI 45.6%) of 47.3%. For the same molecule, the Clinical pregnancy rate in series [2] (c-ICSI 50%) came to 55%. The “Fertilization rate (oocytes successfully fertilised)” value in series [2] (c-ICSI 65.9%, p<0.05) came out at 80.6%.

For `FC(F)(F)C(F)(F)C(F)(F)C(F)(F)C(F)(F)C(F)(F)C(F)(F)C(F)(F)F` [raw perfluoro-n-octane, perfluoro-n-octane], in series [1], the “Mean T2 to T3 (mean time from 2-cell stage to 3-cell stage)” value was 1518 min, the “# embryos showing degeneration” value is 0, the “Pace of embryo development compared to untreated control embryos” value is “developed more slowly than control embryos” and the “Mean T2 (mean time taken to reach the 2-cell stage)” value is 1394 min. In series [1], the “# 2-cell stage” value came out at 52, the “# 3-cell stage” value came to 45, the “# expanded blastocyst” value was 36 and the “# hatching/hatched blastocyst” value came out at 9. In addition, in series [1], the “# 2-cell stage (%)” value is recorded as “(95%)”, the “# 3-cell stage (%)” value was “(82%)”, the “# expanded blastocyst (%)” value was determined as 65% and the “# hatching/hatched blastocyst (%)” value was found to be 16%.

Turning to `FC(F)(F)C(F)(F)C(F)(F)C(F)(F)C(F)(F)C(F)(F)C(F)(F)C(F)(F)F` [perfluoro-n-octane, 1,1,1,2,2,3,3,4,4,5,5,6,6,7,7,8,8,8-octadecafluorooctane], in series [3], the Surface tension is 16 mN/m and the Vapour pressure is on record as 3.4 mbar. The “# embryos showing degeneration” value in series [1] is listed as “none”.
